What was measured:
Assay in all cases: NCI 60 cell panel SRB screen
Assay type in all cases: cell-based
NCI-H522 = details: Homo sapiens
HCC-2998 = details: Homo sapiens
LOX IMVI = details: Homo sapiens
MDA-MB-435 = details: Homo sapiens
MOLT-4 = details: Homo sapiens
MCF7 = details: Homo sapiens
HS 578T = details: Homo sapiens
KM12 = details: Homo sapiens
MDA-MB-468 = details: Homo sapiens
Procedure: The human tumor cell lines of the cancer-screening panel were grown in RPMI 1640 medium containing 5% fetal bovine serum and […] L-glutamine. For a typical screening experiment, cells are inoculated into 96 well microtiter plates in 100 ml at plating densities ranging from 5000 to 40,000 cells/well depending on the doubling time of individual cell lines. After cell inoculation, the microtiter plates are incubated at 37 °C, 5% CO2, 95% air and 100%
relative humidity for 24 h prior to addition of experimental drugs. After 24 h, two plates of each cell line are fixed in situ with TCA, to represent a measurement of the cell population for each cell line at the time of drug addition (Tz). Experimental drugs are dissolved in dimethyl sulfoxide at 400-fold the desired final maximum test concentration and stored frozen prior to use. At the time of drug addition, an aliquot of frozen concentrate is thawed and diluted to twice the desired final maximum test concentration with complete medium containing […] Gentamicin. Additional four, 10-fold or ½log serial dilutions are made to provide a total of five drug concentrations plus control. Aliquots of […] of these different drug dilutions are added to the appropriate microtiter wells already containing 100 ml of medium, resulting in the required final drug concentrations. Following drug addition, the plates are incubated for an additional 48 h at 37 °C, 5% CO2, 95% air, and 100% relative humidity. For adherent cells, the assay is terminated by the addition of cold TCA. Cells are fixed in situ by the gentle addition of […] of cold 50% (w/v) TCA (final concentration,10% TCA) and incubated for 60 min at 4 °C. The supernatant is discarded, and the plates are washed five times with tap water and air dried. Sulforhodamine B (SRB) solution (100 ml) at 0.4% (w/v) in 1% acetic acid is added to each well, and plates are incubated for 10 min at room temperature. After staining, unbound dye is removed by washing five times with 1% acetic acid and the plates are air dried. Bound stain is subsequently dissolved with 10 μM trizma base, and the absorbance is read on an automated plate reader at a wavelength of 515 nm. For suspension cells, the methodology is the same except that the assay is terminated by fixing settled cells at the bottom of the wells by gently adding […] of 80% TCA (final concentration, 16% TCA).
Using the seven absorbance measurements [time zero, (Tz), control growth, (C), and test growth in the presence of drug at the five concentration levels (Ti)], the percentage growth is calculated at each of the drug concentrations levels. Percentage growth inhibition is calculated as: [(Ti -Tz)/(C - Tz)] x 100 for concentrations for which Ti>/ ¼ Tz and [(Ti -Tz) / Tz] x100 for concentrations for which Ti <Tz.
Three dose response parameters are calculated for each experimental agent. Growth inhibition of 50% (GI50) is calculated from [(Ti -Tz)/(C - Tz)] x 100 =50, which is the drug concentration resulting in a 50% reduction in the net protein increase (as measured by SRB staining) in control cells during the drug incubation. The drug concentration resulting in total growth inhibition (TGI) is calculated from Ti ¼ Tz. The LC50 (concentration of drug resulting in a 50% reduction in the measured protein at the end of the drug treatment as compared to that at the beginning) indicating a net loss of cells following treatment is calculated from [(Ti - Tz) / Tz] x100 = -50. Values are calculated for each of these three parameters if the level of activity is reached; however, if the effect is not reached or is exceeded, the value for that parameter is expressed as greater or less than the maximum or minimum concentration tested.

OVCAR-4 = details: Homo sapiens
HOP-92 = details: Homo sapiens
UO-31 = details: Homo sapiens
HCT-15 = details: Homo sapiens
COLO 205 = details: Homo sapiens
NCI-H322M = details: Homo sapiens
MDA-MB 231/ATCC = details: Homo sapiens
HT29 = details: Homo sapiens, HT-29
BT-549 = details: Homo sapiens
[1] = 5 log dose, 48 h, read-out: LC50 (the source's name)

O=C(Nc1ccc(Cl)cc1)Nc1ccc(Nc2nncc3ccccc23)cc1 [Compound 6b, 1–(4-Chlorophenyl)-3–(4-(phthalazin-1-ylamino)phenyl)urea]
GI50 (NCI-H522; NCI-H522, 5 log dose): 1320 nM
IC (TGI) (NCI-H522; NCI-H522, 5 log dose): 8.81 µM
CC50 (NCI-H522; NCI-H522, 5 log dose, 48 h, read-out: LC50 (the source's name)): 43.2 µM
activity at 10 µM (NCI-H522; NCI-H522, single dose 10 μM, read-out: percent cell growth promotion): 11.9%
GI50 (HCC-2998; HCC-2998, 5 log dose): 3.26 µM
IC (TGI) (HCC-2998; HCC-2998, 5 log dose): 19.8 µM
LC50 (50% lethal concentration) (HCC-2998; HCC-2998, 5 log dose, 48 h): > 100 µM
activity at 10 µM (HCC-2998; HCC-2998, single dose 10 μM, read-out: percent cell growth promotion): 30.7%
GI50 (LOX IMVI): 820 nM
CC50 (LOX IMVI; [1]): 53.2 µM
IC (TGI) (LOX IMVI; read-out: TGI): 14.6 µM
activity at 10 µM (LOX IMVI; read-out: percent cell growth promotion): 33.6%
GI50 (MDA-MB-435; MDA-MB-435): 2140 nM
IC (TGI) (MDA-MB-435; MDA-MB-435, read-out: TGI): 9.42 µM
activity at 10 µM (MDA-MB-435; MDA-MB-435, read-out: percent cell growth promotion): 13.7%
CC50 (MDA-MB-435; MDA-MB-435, 5 log dose, 48 h, read-out: LC50 (the source's name)): 30.9 µM
GI50 (MOLT-4; MOLT-4, 5 log dose): 2090 nM
IC (TGI) (MOLT-4; MOLT-4, 5 log dose): 6.36 µM
CC50 (MOLT-4; MOLT-4, 5 log dose, 48 h, read-out: LC50 (the source's name)): > 100 µM
activity at 10 µM (MOLT-4; MOLT-4, single dose 10 μM, read-out: percent cell growth promotion): -1.61%
GI50 (MCF7; MCF7): 1430 nM
IC (TGI) (MCF7; MCF7, read-out: TGI): 8.32 µM
activity at 10 µM (MCF7; MCF7, read-out: percent cell growth promotion): 5.46%
CC50 (MCF7; MCF7, 5 log dose, 48 h, read-out: LC50 (the source's name)): 64.1 µM
GI50 (HS 578T; Hs-578T): 3.83 µM
IC (TGI) (HS 578T; Hs-578T, read-out: TGI): 27.7 µM
activity at 10 µM (HS 578T; Hs-578T, read-out: percent cell growth promotion): 58.3%
CC50 (HS 578T; HS 578T, 5 log dose, 48 h, read-out: LC50 (the source's name)): > 100 µM
GI50 (KM12; KM12, 5 log dose): 1470 nM
IC (TGI) (KM12; KM12, 5 log dose): 11.4 µM
CC50 (KM12; KM12, 5 log dose, 48 h, read-out: LC50 (the source's name)): 45 µM
activity at 10 µM (KM12; KM12, single dose 10 μM, read-out: percent cell growth promotion): 18.9%
activity at 10 µM (MDA-MB-468; MDA-MB-468, MDA-MBA-468, single dose 10 μM, read-out: percent cell growth promotion): 0.17%
GI50 (MDA-MB-468; MDA-MB-468, 5 log dose): 2570 nM
IC (TGI) (MDA-MB-468; MDA-MB-468, 5 log dose): 9.47 µM
CC50 (MDA-MB-468; MDA-MB-468, 5 log dose, 48 h, read-out: LC50 (the source's name)): > 100 µM
GI50 (OVCAR-4; OVCAR-4, 5 log dose): 1970 nM
IC (TGI) (OVCAR-4; OVCAR-4, 5 log dose): 8.17 µM
CC50 (OVCAR-4; OVCAR-4, 5 log dose, 48 h, read-out: LC50 (the source's name)): > 100 µM
activity at 10 µM (OVCAR-4; OVCAR-4, single dose 10 μM, read-out: percent cell growth promotion): 11.1%
GI50 (HOP-92; HOP-92, 5 log dose): 2550 nM
IC (TGI) (HOP-92; HOP-92, 5 log dose): 7.26 µM
CC50 (HOP-92; HOP-92, 5 log dose, 48 h, read-out: LC50 (the source's name)): > 100 µM
activity at 10 µM (HOP-92; HOP-92, single dose 10 μM, read-out: percent cell growth promotion): 38.7%
GI50 (UO-31; UO-31, 5 log dose): 1900 nM
IC (TGI) (UO-31; UO-31, 5 log dose): 15.8 µM
CC50 (UO-31; UO-31, 5 log dose, 48 h, read-out: LC50 (the source's name)): > 100 µM
activity at 10 µM (UO-31; UO-31, single dose 10 μM, read-out: percent cell growth promotion): 19%
GI50 (HCT-15; HCT-15, 5 log dose): 1590 nM
IC (TGI) (HCT-15; HCT-15, 5 log dose): 11.8 µM
CC50 (HCT-15; HCT-15, 5 log dose, 48 h, read-out: LC50 (the source's name)): 71.5 µM
activity at 10 µM (HCT-15; HCT-15, single dose 10 μM, read-out: percent cell growth promotion): 18.3%
GI50 (COLO 205; COLO 205, 5 log dose): 2770 nM
IC (TGI) (COLO 205; COLO 205, 5 log dose): 9.58 µM
CC50 (COLO 205; COLO 205, 5 log dose, 48 h, read-out: LC50 (the source's name)): 34.6 µM
activity at 10 µM (COLO 205; COLO 205, single dose 10 μM, read-out: percent cell growth promotion): 18.6%
GI50 (NCI-H322M; 5 log dose): 5 µM
IC (TGI) (NCI-H322M; 5 log dose): 15 µM
CC50 (NCI-H322M; [1]): > 100 µM
activity at 10 µM (NCI-H322M; single dose 10 μM, read-out: percent cell growth promotion): 64.3%
GI50 (MDA-MB 231/ATCC; MDA-MB-231): 3.4 µM
IC (TGI) (MDA-MB 231/ATCC; MDA-MB-231, read-out: TGI): 15.9 µM
activity at 10 µM (MDA-MB 231/ATCC; MDA-MB-231, read-out: percent cell growth promotion): 36.6%
CC50 (MDA-MB 231/ATCC; MDA-MB-231, MDA-MDA 231/ATCC, 5 log dose, 48 h, read-out: LC50 (the source's name)): 64.9 µM
GI50 (HT29; HT29, 5 log dose): 2650 nM
IC (TGI) (HT29; HT29, 5 log dose): 14.1 µM
CC50 (HT29; HT29, 5 log dose, 48 h, read-out: LC50 (the source's name)): 60 µM
activity at 10 µM (HT29; HT29, single dose 10 μM, read-out: percent cell growth promotion): 32.4%
GI50 (BT-549; BT-549): 2150 nM
IC (TGI) (BT-549; BT-549, read-out: TGI): 9.28 µM
activity at 10 µM (BT-549; BT-549, read-out: percent cell growth promotion): 15.7%
CC50 (BT-549; BT-549, 5 log dose, 48 h, read-out: LC50 (the source's name)): > 100 µM

From publication PMC6691788, “Design and synthesis of phthalazine-based compounds as potent anticancer agents with potential antiangiogenic activity via VEGFR-2 inhibition” (Journal of Enzyme Inhibition and Medicinal Chemistry, 2019)
